Here are results for six compounds from US8828695B2, “Method for producing butanol using two-phase extractive fermentation” (Butamax Advanced Biofuels LLC, priority 2008, dated 2014).

The subject of the experiment is Saccharomyces cerevisiae BY4741. As to the kind of experiment: Biocompatibility of solvents, shake flask studies (OD600 and glucose). It is filed as cell-based. The settings on record: for Biocompatibility of the solvent (growth and glucose utilization versus control without solvent): S. cerevisiae BY4741, 25 mL solvent per 100 mL; for Glucose / OD600: 75 mL seed culture + 25 mL solvent, 30° C. Here is the method:
The biocompatibility of each solvent was determined using shake flask studies with Saccharomyces cerevisiae BY4741 obtained from ATCC. Seed shake flasks containing 700 mL of yeast extract/peptone/dextrose (YPD) medium were inoculated with 200 μL of S. cerevisiae BY4741 inoculum and incubated overnight at 30° C. with shaking at 250 rpm until the OD600 reached about 0.5. Samples were withdrawn from the culture for measurement of OD600 using a spectrophotometer and glucose concentration using HPLC.
The resulting seed culture was divided into eight 125 mL flasks as follows. Into one flask, which served as a control, 100 mL of the seed culture was added. Into the remaining seven flasks, 75 mL of the seed culture and 25 mL of the solvent to be tested was added.

With `CCCCCCCCCCO` [Solvent 1-decanol, 1-decanol], the “Biocompatibility of the solvent (growth and glucose utilization versus control without solvent)” value is “inhibited growth and glucose utilization”. Moreover, for the setting “t = 0”, the Glucose is recorded as 17.5 g/L and the OD600 is reported as 0.5. In addition, the OD600 (t = 4) came out at 0.7. Moreover, under “t = 2 h”, the Glucose was 16.6 g/L and the OD600 worked out at 0.5. Further, the Glucose (t = 4 h) was 17.0 g/L. Further, for the setting “t = 6 h”, the Glucose came out at 17.8 g/L and the OD600 turned out to be 0.6. Further, where the note is “t = 24 h”, the Glucose is recorded as 17.6 g/L and the OD600 amounted to 0.8.

As to `CCCCCCCCCCCCO` [Solvent 1-dodecanol, 1-dodecanol], the “Biocompatibility of the solvent (growth and glucose utilization versus control without solvent)” value was “biocompatible”. In addition, where the note is “t = 0”, the Glucose worked out at 17.5 g/L and the OD600 came out at 0.5. Also, for the setting “t = 4”, the OD600 was determined as 1.6. Under “t = 2 h”, the Glucose came out at 15.4 g/L and the OD600 turned out to be 0.9. Also, the Glucose (t = 4 h) was determined as 11.6 g/L. For the same compound, where the note is “t = 6 h”, the Glucose was determined as 3.9 g/L and the OD600 was determined as 2.8. Where the note is “t = 24 h”, the Glucose is on record as 0.0 g/L and the OD600 is 4.2.

As for `CCCCCCCCC=O` [Solvent 1-nonanal, 1-nonanal], the “Biocompatibility of the solvent (growth and glucose utilization versus control without solvent)” value is “inhibited growth and glucose utilization”. Besides, for the setting “t = 0”, the Glucose turned out to be 17.5 g/L and the OD600 is listed as 0.5. In addition, under “t = 4”, the OD600 is on record as 0.7. Where the note is “t = 2 h”, the Glucose stood at 16.6 g/L and the OD600 amounted to 0.7. For the same compound, the Glucose (t = 4 h) came to 17.0 g/L. Besides, under “t = 6 h”, the Glucose was determined as 17.8 g/L and the OD600 was determined as 0.8. Also, under “t = 24 h”, the Glucose stood at 17.6 g/L and the OD600 was determined as 1.8.

For `CCCCCCCCCO` [nonanol, 1-nonanol], the “Biocompatibility of the solvent (growth and glucose utilization versus control without solvent)” value was “inhibited growth and glucose utilization”. Further, where the note is “t = 0”, the Glucose was found to be 17.5 g/L and the OD600 was 0.5. The OD600 (t = 4) is given as 0.7. Moreover, under “t = 2 h”, the Glucose is 17.0 g/L and the OD600 was 0.5. For the same compound, the Glucose (t = 4 h) is 16.9 g/L. For the same compound, for the setting “t = 6 h”, the Glucose is 18.1 g/L and the OD600 was 0.6. Also, where the note is “t = 24 h”, the Glucose is given as 17.8 g/L and the OD600 turned out to be 0.7.

Regarding `CCCCCCCC(=O)O` [octanoic acid], the “Biocompatibility of the solvent (growth and glucose utilization versus control without solvent)” value was “inhibited growth and glucose utilization”. For the setting “t = 0”, the Glucose is listed as 17.5 g/L and the OD600 is 0.5. Moreover, the OD600 (t = 4) amounted to 0.8. In addition, where the note is “t = 2 h”, the Glucose was 17.1 g/L and the OD600 is on record as 0.9. The Glucose (t = 4 h) was found to be 17.6 g/L. Also, under “t = 6 h”, the Glucose is 19.2 g/L and the OD600 is 0.7. Under “t = 24 h”, the Glucose turned out to be 18.5 g/L and the OD600 is on record as 1.0.

On to `CCCCCCCC/C=C\CCCCCCCC(=O)O` [oleic acid], for which the “Biocompatibility of the solvent (growth and glucose utilization versus control without solvent)” value is “biocompatible”. Moreover, for the setting “t = 0”, the Glucose is 17.5 g/L and the OD600 was 0.5. For the same compound, where the note is “t = 4”, the OD600 worked out at 1.7. For the same compound, where the note is “t = 2 h”, the Glucose amounted to 19.0 g/L and the OD600 amounted to 0.8. Moreover, for the setting “t = 6 h”, the Glucose is 2.2 g/L and the OD600 came out at 2.8. Moreover, where the note is “t = 24 h”, the Glucose came out at 0.0 g/L and the OD600 was 4.4.
